According to PubChem BioAssay (NCI):
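Results reflect a 48-hour exposure of cells in 96-well plates to compound at five concentrations. TGI is the concentration that stops growth completely.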

Assays:
Assay in all cases: NCI tumour cell line growth inhibition, 48 h
ACHN renal = tested on: ACHN renal
CCRF-CEM leukemia = tested on: CCRF-CEM leukemia
HOP-62 NSCLC = tested on: HOP-62 NSCLC
NCI-H460 lung = tested on: NCI-H460 lung
PC-3 prostate = tested on: PC-3 prostate
SK-OV-3 ovarian = tested on: SK-OV-3 ovarian
SN12C renal = tested on: SN12C renal
SW-620 colon = tested on: SW-620 colon
TK-10 renal = tested on: TK-10 renal
UACC-257 melanoma = tested on: UACC-257 melanoma

Structure (SMILES) | TGI (ACHN renal) | TGI (CCRF-CEM leukemia) | TGI (HOP-62 NSCLC) | TGI (NCI-H460 lung) | TGI (PC-3 prostate) | TGI (SK-OV-3 ovarian) | TGI (SN12C renal) | TGI (SW-620 colon) | TGI (TK-10 renal) | TGI (UACC-257 melanoma)
COc1ccccc1N1C(=O)CSC1c1cccc(Oc2ccccc2)c1 (centres undefined) | 38.2 µM | > 100 µM | 45.7 µM | 33.3 µM | 40 µM | > 100 µM | 31.9 µM | 56.6 µM | 48.4 µM | 33.6 µM
Cc1cc2c3c(nc2c2cc[nH]c(C)c12)CCCC3 | 15 µM | 6.48 µM | 3.62 µM | 4.27 µM | 16.6 µM | 3.7 µM | 3.39 µM | 3.79 µM | 4.64 µM | 3.66 µM
Brc1ccc2nc(-c3cccs3)nc(N3CCN(c4ccccc4)CC3)c2c1 | > 100 µM |  | > 100 µM | > 100 µM | > 100 µM | > 100 µM | > 100 µM | > 100 µM | > 100 µM | > 100 µM
CCCC(=O)Oc1c2ccsc2c(OC(=O)CCC)c2ccsc12 | 9.99 µM | 9.13 µM | 2.9 µM | 3.12 µM | 3.52 µM | 10.4 µM | 2.98 µM | 8.9 µM | 7.67 µM | 1.82 µM
CC(C)(C)OC(=O)NCC(c1c[nH]c2cc(Br)ccc12)c1c[nH]c2cc(Br)ccc12 | 30.3 µM | > 100 µM | 33.2 µM | 48.7 µM | 31.1 µM | 29.5 µM | 33.6 µM | > 100 µM | 35.9 µM | 44.6 µM
O=C([O-])c1ccccc1Nc1ccccc1C(=O)[O-].[OH3+].[Zn+2] | > 100 µM | 61.6 µM | > 58.5 µM | > 100 µM |  | 39 µM | > 100 µM | > 54.8 µM | > 100 µM | 21.5 µM
Cc1ccc2c(ccc3ncc(CNc4ccc(NS(C)(=O)=O)cc4)c32)[nH]1 | > 100 µM | > 100 µM | 67.2 µM | 35.4 µM | 68.7 µM | 84.2 µM | 92.5 µM | > 100 µM | > 100 µM | 34.7 µM
Nc1nncc2n[nH]nc12 | > 100 µM | > 100 µM | > 100 µM | > 100 µM | > 100 µM |  | > 100 µM | > 100 µM | > 100 µM | > 100 µM
C1=C2C3=[N+](CCCC3)CC2Cc2sccc21 (centres undefined) | > 100 µM | > 100 µM | > 100 µM | > 100 µM | > 100 µM | > 100 µM | > 100 µM | > 100 µM | > 100 µM | > 100 µM
COC(=O)c1ccc(NCC2=CC(=O)C=CC2=O)cc1O | 26.8 µM | > 100 µM | 34.5 µM | 43.4 µM | > 100 µM | 42.5 µM | 66.5 µM | > 100 µM | 27.9 µM | 30.6 µM
NS(=O)(=O)c1ccc(N=Nc2ccc(O)cc2)cc1 | > 100 µM | > 100 µM | > 100 µM | > 100 µM | > 100 µM | > 100 µM | > 100 µM | > 100 µM | > 100 µM | > 100 µM
Cc1cn(CC2(CO)CCC2)c(=O)[nH]c1=O | > 100 µM | > 100 µM | > 100 µM | > 100 µM | > 100 µM | > 100 µM | > 100 µM | > 100 µM | > 100 µM | > 100 µM
CN1/C(=C\N=O)C(C)(C)N(O)C1(C)C | > 100 µM | > 100 µM | > 100 µM | > 100 µM | > 100 µM | > 100 µM | > 100 µM | > 100 µM | > 100 µM | > 100 µM
NC1=Nc2ccccc2Sc2nccn21 | 91 µM | 75.3 µM | 57.4 µM | > 100 µM | 65 µM | > 100 µM | > 100 µM | > 100 µM | 72.6 µM | 75 µM
O=c1c2ccccc2ncn1COCc1ccccc1 | > 100 µM | > 100 µM |  |  |  | > 100 µM |  | > 100 µM | > 100 µM | > 100 µM
Cc1ccc(C(=O)C2C=C(c3ccc(C)cc3)SC3C=CCC32)cc1 (centres undefined) | 47.7 µM | 38.3 µM | 45.2 µM | 37.3 µM | 39.4 µM | 54.3 µM | 33.1 µM | 29.8 µM | 53.3 µM | 54.3 µM
COC(=O)CC(C(C(=O)OCc1ccccc1)C(C)O)N1C(=O)OCC1c1ccccc1 (centres undefined) | > 100 µM | > 100 µM | > 100 µM | > 100 µM |  |  | > 100 µM | > 100 µM | > 100 µM | > 100 µM
O=CC1=CCCN(CCc2c[nH]c3ccccc23)C1 | 125 µM | > 393 µM | 104 µM | 105 µM |  | 224 µM | 109 µM | 89.9 µM | 140 µM | 132 µM
CCOC(=O)C1=NN(c2ccc(C)cc2)C2(c3ccccc3)C=C(c3ccccc3)N(C)CCN12 (centres undefined) | > 100 µM | > 100 µM | > 100 µM |  | > 100 µM | > 100 µM | > 100 µM | > 100 µM | > 100 µM | > 100 µM
CC1=C(C(=O)O)N2C(=O)[C@@H](NC(=O)C(c3ccccc3)N3CSC(=S)N(C(C)C)C3)C2SC1 (some centres undefined) | > 100 µM | > 100 µM | > 100 µM | > 100 µM |  | > 100 µM | > 100 µM |  | > 100 µM | > 100 µM
CCCC(=O)Nc1cc(/C=C/C(=O)N2CC(CCl)c3ccc([N+](=O)[O-])cc32)n(C)c1 (centres undefined) | > 100 µM | 29.4 µM |  |  | > 100 µM | > 100 µM | > 100 µM | > 100 µM | > 100 µM | > 100 µM
N#CC12CC(C=O)=C(N)C1(C#N)CC(C=O)=C2N (centres undefined) | > 100 µM | > 100 µM | > 100 µM |  | > 100 µM | > 100 µM | > 100 µM | > 100 µM | > 100 µM | > 100 µM
